Counter-ions that a name gives are not always drawn. Like-named read-outs stand apart in the source and are kept apart here.
Experiments:
physchem [1] = test: physchem
Procedure: (§1) The tests were conducted using Sartorius balances (Model SQP), a Thermo HPLC (UltiMate 3000 System, UV Wavelength: 205 nm), and Phenomenex Luna columns (5 μm C18 (2), 4.6×250 mm). The column temperature was 40° C. and the autosampler temperature was room temperature. The injection volume was 5 μL.
(§2) Mobile Phase A was prepared by weighing 4.0 g tetramethylammonium bisulfate (MERYER, Batch No. 77957139) and 1.1 sodium 1-heptasulfonate (Admas-beta, Batch No. P1343755), and transferring the materials to a flask. 2 mL of 0.1 mol/L EDTA solution (Brand: Sinopharm Chemical Reagent Co., Ltd., Batch No. 20150410) was added to the flask and the volume was adjusted to 950 mL using water. The solution was mixed and adjusted to a pH of 3.5 with 0.1N sodium hydroxide solution (Brand: Enox, Batch No. 20161201). Mobile Phase B was prepared using ethanol. The isocratic elution was used in a proportion of A/B of 85/15. The run time was 8 minutes.
A standard solution was used comprising 10 mg of the standard dissolved in 10 mL of water. The test solution solutions were prepared and water was added at 25±2° C. Every 5 minutes, the solution was sonicated for 30 seconds. The dissolution was observed within 30 minutes to make sure the solution was saturated. The solution was filtered through a 0.45 μm membrane and the solution was diluted to test.

[2] = 20 mg in 20 mL water, 25° C.
Procedure: The tests were conducted using Sartorius balances (Model SQP) and a pH meter (Brand: INESA, Model No. PHS-3E). 20 mg of the sample was weighed and transferred into a 20 mL volumetric flask with the remainder of the volume comprising water. The solution was mixed. The pH meter was calibrated with pH 4.0 and pH 6.8 standard buffer solutions at 25° C.

physchem [3] = settings: n-octanol / pH 3.47 buffer
Procedure: as §1, §2
A hydrogen disodium phosphate solution was prepared by weighing 7.1 g of hydrogen disodium phosphate (Brand: Sinopharm Chemical Reagent Co., Ltd., Batch No. 20150910). A citric acid solution was prepared by weighing 5.25 g of hydrated citric acid (Brand: General-Reagent, Batch No. 5949-29-1) and dissolving it in 1000 mL of water. A pH 3.47 buffer solution was prepared by adjusting the pH of the hydrogen disodium phosphate solution to 3.47 with the citric acid solution. An n-octanol buffer solution was prepared by mixing 100 mL of n-octanol (Brand: Chinasun Specialty Products Co., Ltd., Batch No. 20160601) and 100 mL of the pH 3.47 buffer solution, vibrated for 24 hours, which sat for an hour to separate the n-octanol phase and the pH 3.47 buffer phase.
10 mg of the sample was dissolved in 10 mL of the saturated n-octanol solution and mixed completely. 10 mL of the saturated pH 3.47 buffer solution was added and vortexed at 3000 r/min for 1 hour. 1 mL of solution was pipetted from the n-octanol and pH 3.47 phase after an hour. A standard solution was prepared containing 1 mg/mL of the standard in diluent. An LOQ solution was prepared from about 0.1% of the standard solution. An n-octanol phase solution was diluted with 1 mL of methanol to test. The pH 3.47 phase solution was injected directly. The partition coefficient was calculated using the following formula:
[formula] wherein Co is the equilibrium concentration of solute in oil phase, and Cw is the equilibrium concentration of solute in water phase.

physchem [4] = settings: titrated with 0.1 mol/L NaOH
Procedure: The tests were conducted using Sartorius balances (Model SQP) and a potentiometric titrator (Brand: Methrom, Model No. 905 Titrando). 0.17 g of the sample was weighed and transferred into a 50 mL volumetric flask with the remainder of the volume comprising deonized water. The solution was mixed. The solution was titrated with a 0.1 mol/L NaOH solution using a pH indicator to indicate the end point.

[5] = sublingual tablet of Example 3, 10 mg epinephrine base, receptor pH 7.4, 37° C.
Procedure: The in-vitro permeability of the pharmaceutical compositions of Example 3 were tested. The tests were conducted using drug transdermal diffusion test instruments (Brand Huanghai, Model No. RJY-6B), Sartorius balances (Model SQP), an INESA pH meter (Model PHS-3E), a Thermo HPLC (UltiMate 3000 System, UV Wavelength: 205 nm), and Phenomenex Luna columns (5 μm C18 (2), 4.6×250 mm). The column temperature was 40° C. and the autosampler temperature was room temperature. The injection volume was 5 μL.
as §2, with “using methanol.” for “using ethanol.”, “was 10” for “was 8”
The in vitro diffusion of epinephrine salts were evaluated using Franz cells with an OD of 20 mm and reservoir volume of 7 mL. Dialysis membranes (Spectra/Por® dialysis membranes with 1,000 Da MWCO) were used to simulate sublingual mucous membrane in the vitro permeability tests. The assay content of the active components was detected in receiving pools. A receptor chamber with a magnetic stirrer was filled with phosphate buffer solution (pH 7.4) as the diffusion medium. The water bath was set at 37° C., and water was circulated in the Franz cells.
Each tablet was placed at the center of the donor chamber on the membrane at T0, and 2 mL of the artificial saliva (Brand: Biomart, Brand No. GL0305) was added to facilitate tablet disintegration and dissolution. Aliquots of 1 mL were withdrawn from the receptor chamber at 10, 30, 60, 90, and 120 min. The volumes withdrawn were replenished with fresh medium. Samples were transferred to HPLC vials for HPLC analysis.

[6] = Procedure: The stability of the pharmaceutical compositions of Example 3 were tested. The stability studies were conducted on packaged epinephrine salts at 25° C./RH 60% and 40° C./RH 75% conditions, as well as samples without packaging and exposed to light (4500 Lux) for one month. The appearance, assay content, and related substances were examined at 5, 7, 14 and 30 days.
as §1, with “assay content was tested” for “tests were conducted”, “SQP), an INESA pH meter (Model PHS-3E),” for “SQP),”, “C.,” for “C.”
as §2, with “using methanol.” for “using ethanol.”, “was 10” for “was 8”
The assay content was analyzed by dissolving 20 mg of each sample to be examined in 50 mL of Mobile Phase A (0.4 mg/mL) as assay test solution. The sample was used and tested right after it was ready and was protected from light.
The purity was tested using Sartorius balances (Model SQP), an INESA pH meter (Model PHS-3E), a Thermo HPLC (UltiMate 3000 System, UV Wavelength: 205 nm), and PhenomenexSynergi columns (4 μm Polar-RP 80 A 250×4.6 mm). The column temperature was 30° C., and the autosampler temperature was room temperature. The injection volume was 5 μL.
Mobile Phase A was prepared by weighing 1.136 g of potassium dihydrogen orthophosphate (Brand: CNW, Batch No. A1040040) and 1.74 g of dipotassium hydrogen orthophosphate (Brand: Ourchem, Batch No. 20160219) and transferring into 1000 mL of water. The pH was adjusted to 3.0±0.05 with orthophosphoric acid (Brand: Ourchem, Batch No. 4112K060). The solution was filtered through a 0.45 μm membrane and degassed. Mobile Phase B was prepared using methanol. The run time was 50 minutes.
The purity was analyzed by dissolving 10 mg of each sample to be examined in 25 mL of Mobile Phase A (0.4 mg/mL) as purity and related substance test solution. The sample was used and tested right after it was ready and was protected from light.

[7] = light 4500 Lux, under air, 5 days
[8] = light 4500 Lux, under air, 7 days
[9] = light 4500 Lux, under air, 14 days
[10] = light 4500 Lux, under air, 30 days

Compound: epinephrine hemi sulfate
- Solubility (physchem [1]): 17.7 mg/mL
- pH [2]: 7.14

Compound: epinephrine fumarate
- LogP (physchem [3]): −3.00
- Solubility (physchem [1]; water, 25±2° C.): 38.9 mg/mL
- pH [2]: 3.77
- pKa (physchem [4]): 4.28
- Diffusion content (%) 120 min [5]: 54.4%

Compound: CNC[C@H](O)c1ccc(O)c(O)c1 [epinephrine hydrochloride]
- Diffusion content (%) 120 min ([5]; hydrochloride): 44.0%

Compound: CNC[C@H](O)c1ccc(O)c(O)c1 [epinephrine base, epinephrine]
- Related substance (%) ([6]; 25° C./60% RH, 0 days): 0.13%
- Content (%) ([6]; 25° C./60% RH, 5 days): 100.03%
- Related substance (%) ([6]; 25° C./60% RH, 5 days): 0.14%
- Content (%) ([6]; 25° C./60% RH, 7 days): 99.73%
- Related substance (%) ([6]; 25° C./60% RH, 7 days): 0.14%
- Content (%) ([6]; 25° C./60% RH, 14 days): 99.84%
- Related substance (%) ([6]; 25° C./60% RH, 14 days): 0.12%
- Content (%) ([6]; 25° C./60% RH, 30 days): 99.78%
- Related substance (%) ([6]; 25° C./60% RH, 30 days): 0.14%
- Related substance (%) ([6]; 40° C./75% RH, 0 days): 0.13%
- Related substance (%) ([6]; 40° C./75% RH, 5 days): 0.16%
- Content (%) ([6]; 40° C./75% RH, 7 days): 100.67%
- Related substance (%) ([6]; 40° C./75% RH, 7 days): 0.15%
- Content (%) ([6]; 40° C./75% RH, 14 days): 98.97%
- Related substance (%) ([6]; 40° C./75% RH, 14 days): 0.17%
- Content (%) ([6]; 40° C./75% RH, 30 days): 100.62%
- Related substance (%) ([6]; 40° C./75% RH, 30 days): 0.20%
- Related substance (%) ([6]; light 4500 Lux, under air, 0 days): 0.13%
- Content (%) [6, 7]: 100.53%
- Related substance (%) [6, 7]: 0.15%
- Content (%) [6, 8]: 99.27%
- Related substance (%) [6, 8]: 0.18%
- Content (%) [6, 9]: 99.21%
- Related substance (%) [6, 9]: 0.18%
- Content (%) [6, 10]: 98.24%
- Related substance (%) [6, 10]: 0.21%
- Diffusion content (%) 120 min [5]: 10.5%
